Assay results reported in patent US4978654A, “Composition and method for treatment of disseminated fungal infections in mammals” (priority 1987, dated 1990).
Values after ≈ are worked out from the molar mass of the structure shown.

Columns and labels:
[1] = tested on: Aspergillus terreus; assay: Treatment of cancer patient, Case 2; format: in vivo, human
[2] = cited from earlier work
[3] = tested on: Candida neoformans; assay: In vitro MFC, YNB tube dilution (Table 1); format: cell-based, Candida neoformans (Cryptococcus neoformans in method); conditions: 18 h
Experimental: (§1) In vitro tests were conducted to determine the effect of free Amp B, Amp B encapsulated in nor-sterol-containing liposomes, (L-Amp B), Amp B encapsulated in cholesterol-containing liposomes (L-Amp B-C) and Amp B in ergosterol-containing liposomes (L-Amp B-E). Desoxycholate free Amphotericin B was obtained from E. R. Squibb & Sons, Inc. Amp B was encapsulated in non-sterol containing liposomes by the method described by Lopez-Berestein, et al., and summarized in Example 1, above. In order to obtain the different doses necessary, lipid concentration was held constant as the Amp B concentration was decreased. The concentration of Amp B within the liposome was determined by scanning in a UV absorption spectrophotometer (Gilford Instrument Laboratories, Oberlin, Ohio) at 405 nm after the Amp B was dissolved in methanol. Cholesterol or ergosterol, obtained from Avanti Polar Lipids (Birmingham, Ala.), was added to the chloroform DMPC:DMPG solution at a molar ratio of 7:3:4 (DMPC:DMPG:sterol).
(§2) In vitro activity of free Amp B, L-Amp B, L-Amp B-C and L-Amp B-E was tested on the following yeast species, all clinical isolates obtained from the Clinical Microbiology Laboratories at the University of Texas M.D. Anderson Hospital and Tumor Institute at Houston: Candida albicans, C. tropicalis, C. parapsilosis, Torulopsis glabrata and Cryptococcus neoformans. The YNB tube dilution method described by Shadomy, S., et al., "Susceptibility Testing with Antifungal Drugs." In Lennette, E. H., et al. (eds.), Manual of Clinical Microbiology, 3rd Ed. (Washington, D.C., American Society for Microbiology, 1980), pp. 647-653, hereby incorporated by reference, was used to perform all tests. All tubes were subcultured (10 μl ) onto Sabouraud-dextrose agar (SDA) (Scott/Randolph, Houston, Tex.) plates. Minimal fungicidal concentrations (MFC) were determined after incubation for 18 hours. The MFC was defined as the lowest concentration of Amp B that allowed no growth or growth of fewer than four colonies on the subculture plates.

[4] = physchem; format: physicochemical; conditions: organic solvent or mixture
Experimental: The lipids dimyristoyl phosphatidylcholine (DMPC) and dimyristoyl phosphatidylglycerol (DMPG) were obtained from Avanti Polar Lipids (Birmingham, Ala.), and desoxycholate-free Amp B was obtained from Dr. Dan Bonner (Squibb Pharmaceuticals, New Brunswick, N.J.). DMPC and DMPG were dissolved in chloroform in a molar ratio of 7:3 DMPC:DMPG. Amp B was dissolved in methanol at a concentration of 40 μg/ml and the Amp B solution added to the chloroform containing the DMPC and DMPG. This mixture was placed in a rotary evaporator (Rotavapor®; Brinkman Instruments, Westbury, N.Y.) until all organic solvents were removed. Normal saline was then added and the vesicles formed by gentle agitation. Using this method, to prepare enough liposome-encapsulated Amp B to make up a single dose for a 50 kg patient at a dose of 0.8 mg/kg body weight (as discussed in Example 4) requires the drying of at least 1 to 1.5 liters of the Amp B-methanol solution. Under controlled temperature and pressure conditions, approximately 3 to 4 hours are required to evaporate this volume of the Amp B-methanol solution.
Using this method, 640 μg of Amp B was dissolved in 1 ml of chloroform (containing 25 mg of the lipid mixture), a significant increase over the 40 μg/ml which can be dissolved in methanol as in the method described above. […]

[5] = tested on: Candida glabrata; assay: In vitro MFC, YNB tube dilution (Table 1); format: cell-based, Candida glabrata (Torulopsis glabrata in method); conditions: 18 h
Experimental: as §1, §2

[6] = intravenous administration; cited from earlier work
[7] = tested on: C. albicans; assay: MFC of Amp B in different phospholipid compositions (Table 3); format: cell-based, Candida albicans; conditions: effect of lipid composition
Text: The compositions included one or more of the following: DMPC, DMPG, cholesterol (Chol), ergosterol (Erg), and stearylamine (SA).

[8] = tested on: Candida tropicalis; assay: In vitro MFC, YNB tube dilution (Table 1); format: cell-based; conditions: 18 h
Experimental: as §1, §2

[9] = tested on: Candida parapsilosis; assay: In vitro MFC, YNB tube dilution (Table 1); format: cell-based; conditions: 18 h
Experimental: as §1, §2

[10] = tested on: Candida albicans; assay: In vitro MFC, YNB tube dilution (Table 1); format: cell-based; conditions: 18 h
Experimental: as §1, §2

[11] = tested on: C. albicans 336; assay: Survival of infected mice, effect of lipid composition (FIG. 3); format: in vivo, Hale-Stoner mice; conditions: 1.6 mg Amp B/kg
Experimental: Hale-Stoner mice, 6-8 weeks old and weighing 20-25 g, were obtained from The University of Texas Science Park (Bastrop, Tex.). Mice (10 per group) were injected intravenously with Candida albicans strain 336. This strain was grown for 18 hours on SDA plates at 37° C., washed and resuspended in saline. The mice were injected in the tail vein with 0.2 ml of the suspension containing 7×10^5 colony-forming units. […] The mice were injected on the second day of infection with a single dose of Amphotericin B.
Amp B was encapsulated in sterol-free and sterol-containing liposomes prepared by the method described in Example 2, above. Amp B concentration was determined at 405 nm as described in Example 2.
The effect of the lipid composition of the liposome on the survival of mice infected with C. albicans 336 was also evaluated. Each liposome case shown in FIG. 3 used 1.6 mg Amp B in 200 mg total lipid/kg.

[12] = tested on: yeast species, clinical isolates; assay: In vitro antifungal activity summarized over the 19 yeast strains; format: cell-based
Experimental: as §1, with “Cholesterol or ergosterol, obtained from Avanti Polar Lipids (Birmingham, Ala.), was added to the chloroform DMPC:DMPG solution at a molar ratio of 7:3:4 (DMPC:DMPG:sterol).” left out
In vitro activity of free Amp B, L-Amp B, L-Amp B-C and L-Amp B-E was tested on the following yeast species, all clinical isolates obtained from the Clinical Microbiology Laboratories at the University of Texas M.D. Anderson Hospital and Tumor Institute at Houston: Candida albicans, C. tropicalis, C. parapsilosis, Torulopsis glabrata and Cryptococcus neoformans. […] Minimal fungicidal concentrations (MFC) were determined after incubation for 18 hours. […]

[13] = tested on: systemic fungal infection (fungal liver abscesses, consistent with Aspergillus spp.); conditions: human, in vivo
[14] = Toxicity / tolerated dose in mice; conditions: mouse, in vivo
Text: The liposome-encapsulated Amp B may then be administered to a mammal infected with a fungal infection.

[15] = Poste, Biol. Cell 47; 19 (1983); cited from earlier work

## C[C@@H]1[C@H](O)[C@@H](C)/C=C/C=C/C=C/C=C/C=C/C=C/C=C/[C@H](O[C@@H]2O[C@H](C)[C@@H](O)[C@H](N)[C@@H]2O)C[C@@H]2O[C@](O)(C[C@@H](O)C[C@@H](O)[C@H](O)CC[C@@H](O)C[C@@H](O)CC(=O)O[C@H]1C)C[C@H](O)[C@H]2C(=O)O [Amp B, Amphotericin B]
[1]; intravenous
  response to non-liposomal Amp B therapy: nasal lesions worsened in spite of Amp B therapy and new lung lesions appeared on chest x-ray examination
[1]; total of 1.4 gm by aerosolization
  response to Amp B by aerosolization: without improvement
[1]; total of 2.4 gm intravenously
  side effects of non-liposomal Amp B therapy: always associated with severe nausea, fever and chills
[2]
  solubility in aqueous solution: insoluble in aqueous solution
[3]; strain 222
  MFC: 1.6 μg/Amp B/ml
[3]; strain 595
  MFC: 0.4 μg/Amp B/ml
[3]; strain 843
  MFC: 0.8 μg/Amp B/ml
[3]; strain 881
  MFC: 1.6 μg/Amp B/ml
[4]; chloroform with lipid mixture
  solubility: 640 µg/mL (≈ 693 µM)
[4]; methanol
  solubility: 40 µg/mL (≈ 43.3 µM)
[5]; strain 684
  MFC: 3 μg/Amp B/ml
[5]; strain 1172
  MFC: 1.6 μg/Amp B/ml
[5]; strain 1905
  MFC: 3 μg/Amp B/ml
[5]; strain 2539
  MFC: 3 μg/Amp B/ml
[6]
  toxic effects: renal disfunction, anemia, fever and hypotension
[7]
  MFC: 1.6 μg of Amp B per ML
[8]; strain 251
  MFC: 3 μg/Amp B/ml
[8]; strain 1324
  MFC: 1.6 μg/Amp B/ml
[8]; strain 1784
  MFC: 3 μg/Amp B/ml
[8]; strain 2463
  MFC: 1.6 μg/Amp B/ml
[9]; strain 139
  MFC: 3 μg/Amp B/ml
[9]; strain 1341
  MFC: > 25 μg/Amp B/ml
[9]; strain 2300
  MFC: 3 μg/Amp B/ml
[10]; strain 57
  MFC: 0.8 μg/Amp B/ml
[10]; strain 306
  MFC: 1.6 μg/Amp B/ml
[10]; strain 704
  MFC: 0.4 μg/Amp B/ml
[10]; strain 1091
  MFC: 0.8 μg/Amp B/ml
[11]
  survival time over the controls: improved survival time over the controls
[11]; control 5 days
  time to 50% survival: 10 days
[12]
  efficacy ranking in killing of the fungal strains: Amp B being most effective, then L-Amp B, L-Amp B-C and, finally L-Amp B-E
[13]
  side effects of non-liposomal Amp B therapy: fever and chills were observed
[14]
  LD50: ~1.2 mg/kg
[14]; read-out: maximum dose tolerated
  MTD: 0.8 mg/kg

## CCCCCCCCCCCCCCCCCCN [stearylamine]
[15]
  toxicity in mammalian systems: toxic in mammalian systems in that they cause damage to the liver

## CCCCCCCCCCCCCCCCOP(=O)(O)OCCCCCCCCCCCCCCCC [dicetyl phosphate]
[15]
  toxicity in mammalian systems: toxic in mammalian systems in that they cause damage to the liver
